Source: US11717580B2, “Cyclodextrin-linked polyvalent ligands for complexation of metal ions” (UTI LIMITED PARTNERSHIP, priority 2018, dated 2023)
Read-outs that look alike come from different tables or passages of the source. Each block holds one compound with its values, some of them ahead of it.

Columns and labels:
HeLa cells = assay: In vitro cytotoxicity MTT assay, HeLa; format: cell-based; settings: concentrations higher than 1 mM
[1] = Potentiometric titrations of compound 5 with Gd(III) (stability constants and speciation of Gd(III) complexes); format: binding
Text: Considering the collection of results obtained for the Gd(III)-compound 5, the best chemical model which fits the data corresponds to: (1) mononuclear GdL species for Gd:L ratio lower than 1, (2) binuclear species Gd2L for Gd:L ratio higher than 1 or (3) trinuclear species Gd3L for Gd:L ratio higher than 2.
The complexation of compound 5 with Gd(III) was studied by potentiometric titrations. While maintaining the amount of compound 5 (0.5 μmol) and HCl (9.95 μmol) constant within the cell, a solution of GdCl3 was then added to reach a specified ratio. This solution was then titrated with tetramethylammonium hydroxide (NMe4OH). It was noted that with the solution containing the highest Gd:L ratios, the addition of same amount of base caused a slower increase of pH (FIG. 12A). This could be explained by the displacement of protons from the protonated groups during Gd(III) complexation, thus acidifying the medium.
The stability constants of the Gd(III) complexes are expressed by the general formula:
[formula] with M being the metal ion, L the ligand, and H the proton (the charges are omitted), and dissociation constant Kmlh can be defined similarly to the case of free ligand as:
[formula] [formula] [formula] Analogously, pKmlh=log βmlh−log βmlh-1 (equation 6)
The stability constants of the Gd(III) complexes are reported in the Table 2 and distribution curves given in FIGS. 12B, 12C and 12D, respectively for 1:1, 2:1 and 3:1 Gd(III):compound 5 ratios.

[2] = Potentiometric titrations of compound 5 (protonation constants); format: physicochemical
Procedure: T=298K, [L]=0.0625-1 μmol, [extra-HCl]=0-37.3 μmol in NMe4Cl (0.1 M); total initial volume: 4 mL; burette: [NMe4OH]=0.05 M.
Potentiometric titrations were performed to study the deprotonation of compound 5 (FIG. 6). The initial solution of compound 5 alone has a pH of ˜8.4; this value correlates well with extensive deprotonation observed in ATR-FTIR spectrum. Therefore, a solution of HCl in trimethylammonium chloride (0.1 M) was gradually added to the solution to obtain a series of solutions with varied HCl/5 ratios (0→597), while maintaining the total volume constant. To each prepared solution, a titrant solution of tetramethylammonium hydroxide (0.05 M) was added while the pH of the solution recorded; this enabled preparation of a series of titration curves (FIG. 7).
The protonation constant βh for the following equilibrium is defined by equation 1, where L represents the fully deprotonated form (L^14−) of compound 5 (LH14). H is the proton (charges are omitted).
[formula] As dissociation constants Ka are commonly defined by:
[formula] [formula] [formula] it is evident that Ka=log βh−log βh-1 (equation 3)
Table 1 reports all protonation constants determined by titration curve refinement and the corresponding acidity constants. All pKa values were ascribed to successive deprotonation of the carboxylic acids, followed by ammonium functions.

HepG2 cells = assay: In vitro cytotoxicity MTT assay, HepG2; format: cell-based; settings: concentrations higher than 1 mM
[3] = 12 MHz; cited from earlier work
[4] = cited from earlier work

pH of initial solution ([2]; compound 5 alone): ~8.4
log βLHh ([2]; species LH): 8.80
pKa ([2]; species LH): 8.80
log βLHh ([2]; species LH2): 17.77
pKa ([2]; species LH2): 9.08
log βLHh ([2]; species LH3): 26.44
pKa ([2]; species LH3): 8.56
log βLHh ([2]; species LH4): 34.51
pKa ([2]; species LH4): 8.07
log βLHh ([2]; species LH5): 42.44
pKa ([2]; species LH5): ~7.93
log βLHh ([2]; species LH6): 50.03
pKa ([2]; species LH6): ~7.59
log βLHh ([2]; species LH7): 56.23
pKa ([2]; species LH7): 6.20
log βLHh ([2]; species LH8): 61.22
pKa ([2]; species LH8): 4.99
log βLHh ([2]; species LH9): 64.85
pKa ([2]; species LH9): 3.63
log βLHh ([2]; species LH10): 67.42
pKa ([2]; species LH10): 2.57
pKa ([2]; species LH11-LH21): <2
Structure (SMILES): O=C(O)CN(CC(=O)O)Cc1cn(C[C@H]2O[C@@H]3O[C@H]4[C@H](O)[C@@H](O)[C@@H](O[C@H]5[C@H](O)[C@@H](O)[C@@H](O[C@H]6[C@H](O)[C@@H](O)[C@@H](O[C@H]7[C@H](O)[C@@H](O)[C@@H](O[C@H]8[C@H](O)[C@@H](O)[C@@H](O[C@H]9[C@H](O)[C@@H](O)[C@@H](O[C@H]2[C@H](O)[C@H]3O)O[C@@H]9Cn2cc(CN(CC(=O)O)CC(=O)O)nn2)O[C@@H]8Cn2cc(CN(CC(=O)O)CC(=O)O)nn2)O[C@@H]7Cn2cc(CN(CC(=O)O)CC(=O)O)nn2)O[C@@H]6Cn2cc(CN(CC(=O)O)CC(=O)O)nn2)O[C@@H]5Cn2cc(CN(CC(=O)O)CC(=O)O)nn2)O[C@@H]4Cn2cc(CN(CC(=O)O)CC(=O)O)nn2)nn1 [Compound 5]
cytotoxic effect (inhibition) (HeLa cells): 20-40%
log βMLHh ([1]; dinuclear species Gd2L (MLH 210)): 36.28
log βGd (210)−log βGd (110) ([1]; introduction of second Gd(III) cation): 11.19
log βGd (310)−log βGd (210) ([1]; introduction of third Gd(III) cation): 7.63
cytotoxic effect (inhibition) (HepG2 cells): 20-40%

Structure (SMILES): CO[C@@H]1[C@@H](OC)[C@H]2O[C@H]3[C@H](OC)[C@@H](OC)[C@@H](O[C@H]4[C@H](OC)[C@@H](OC)[C@@H](O[C@H]5[C@H](OC)[C@@H](OC)[C@@H](O[C@H]6[C@H](OC)[C@@H](OC)[C@@H](O[C@H]7[C@H](OC)[C@@H](OC)[C@@H](O[C@H]8[C@H](OC)[C@@H](OC)[C@@H](O[C@@H]1[C@@H](CN(CC(=O)O)CC(=O)O)O2)O[C@@H]8CN(CC(=O)O)CC(=O)O)O[C@@H]7CN(CC(=O)O)CC(=O)O)O[C@@H]6CN(CC(=O)O)CC(=O)O)O[C@@H]5CN(CC(=O)O)CC(=O)O)O[C@@H]4CN(CC(=O)O)CC(=O)O)O[C@@H]3CN(CC(=O)O)CC(=O)O [compound 3]
relaxivity [3]: 8.8 mM⁻¹ s⁻¹

Structure (SMILES): CC[N+](CC)(CC)CC [triethylammonium]
pKa [4]: ~10.75
